The values that follow come from US20220315578A1, “BRD9 BIFUNCTIONAL DEGRADERS AND THEIR METHODS OF USE” (NOVARTIS AG, priority 2019, published 2022).

This test has as its target T1, BRD9-GFP (Homo sapiens, UniProt Q9H8M2).
T1 construct: CHYSEL (2A cis-acting hydrolase element) remnant after GFP; mCherry is split off as a separate protein (C); expressed in transfected cells; host or cells: HEK293A cells (Invitrogen R70507), lentiviral transduction with pLenti6-BRD9-GFP-CHYSEL-mCherry, blasticidin selection
T1 sequence (Q9H8M2 1-597): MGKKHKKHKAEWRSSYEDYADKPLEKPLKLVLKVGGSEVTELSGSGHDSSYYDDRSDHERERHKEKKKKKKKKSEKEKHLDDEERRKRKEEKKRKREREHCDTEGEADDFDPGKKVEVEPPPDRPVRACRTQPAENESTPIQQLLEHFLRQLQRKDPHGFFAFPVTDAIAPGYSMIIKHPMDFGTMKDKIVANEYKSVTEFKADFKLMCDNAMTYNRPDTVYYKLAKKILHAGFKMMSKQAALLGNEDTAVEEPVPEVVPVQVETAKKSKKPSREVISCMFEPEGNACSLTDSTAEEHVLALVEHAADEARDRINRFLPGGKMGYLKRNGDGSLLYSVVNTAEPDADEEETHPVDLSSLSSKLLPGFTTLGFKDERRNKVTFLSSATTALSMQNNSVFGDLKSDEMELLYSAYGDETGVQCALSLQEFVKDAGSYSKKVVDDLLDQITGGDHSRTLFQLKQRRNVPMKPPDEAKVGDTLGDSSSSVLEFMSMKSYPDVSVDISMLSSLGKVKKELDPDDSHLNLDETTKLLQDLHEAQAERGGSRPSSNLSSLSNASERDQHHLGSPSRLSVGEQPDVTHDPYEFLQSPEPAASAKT
The experiment in a line: BRD9-GFP protein abundance flow cytometry assay in HEK293A cells. It is filed as cell-based. Conditions: HEK293A-BRD9-GFP-CHYSEL-mCherry cells; for BRD9 Deg Amax %: 24 h, % protein remaining at the concentration at which maximum degradation is seen; for DC50: 24 h at 37° C., 10-point 1:3 dilution, concentration at which 50% maximal degradation was observed. Put shortly: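 HEK293A cells stably express bicistronic BRD9-GFP-CHYSEL-mCherry and received 24 h treatment at 37° C with a 10-point, 3-fold dilution series from […], in 0.1% DMSO and duplicate. Median GFP/mCherry ratio of 5,000 single cells by flow cytometry, normalized to mCherry-only cells (0%) and DMSO (100%), gave DC50 and Amax (% protein remaining).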
(Flow cytometry measures light scatter and fluorescence of single cells or particles in a stream.)

The structures appear in SMILES notation.

With `CCCCn1cc(-c2cc(OC)c(CN3CC[C@@H](OC4CCN(C(=O)c5ccc(OC)c(N6CCC(=O)NC6=O)c5)CC4)[C@H](F)C3)cc2OC)c2ccncc2c1=O` [Compound E36, 1-(5-(4-(((3R,4R)-1-(4-(2-butyl-1-oxo-1,2-dihydro-2,7-naphthyridin-4-yl)-2,5-dimethoxybenzyl)-3-fluoropiperidin-4-yl)oxy)piperidine-1-carbonyl)-2-methoxyphenyl)dihydropyrimidine-2,4(1H,3H)-dione], the “BRD9 Deg Amax %” value is reported as 12.80% and the DC50 (usually the midpoint of the concentration-degradation curve) is 6 nM.
Taken in the same sequence, the figures for `Cn1cc(-c2cc(F)c(CCN3CCC(OC4CCN(CCn5cccc(CN6CCC(=O)NC6=O)c5=O)CC4)CC3)c(F)c2)c2ccncc2c1=O` [Compound E27, 1-((1-(2-(4-((1-(2,6-difluoro-4-(2-methyl-1-oxo-1,2-dihydro-2,7-naphthyridin-4-yl)phenethyl)piperidin-4-yl)oxy)piperidin-1-yl)ethyl)-2-oxo-1,2-dihydropyridin-3-yl)methyl)dihydropyrimidine-2,4(1H,3H)-dione] were 22.28% and 33 nM.
The corresponding values for `COc1ccc(C(=O)N2CCC(OC3CCN(Cc4c(OC)cc(-c5cn(C)c(=O)c6cnccc56)cc4OC)CC3)CC2)cc1N1CCC(=O)NC1=O` [Compound A42, 1-(5-(4-((1-(2,6-Dimethoxy-4-(2-methyl-1-oxo-1,2-dihydro-2,7-naphthyridin-4-yl)benzyl)piperidin-4-yl)oxy)piperidine-1-carbonyl)-2-methoxyphenyl)dihydropyrimidine-2,4(1H,3H)-dione] are 13.53% and 98 nM.
The corresponding values for `CCCCn1cc(-c2ccc(OC3CCN(CC4CCN(C(=O)c5ccc(Cl)c(N6CCC(=O)NC6=O)c5)CC4)CC3)c(OC)c2)c2ccncc2c1=O` [Compound B6, 1-(5-(4-((4-(4-(2-butyl-1-oxo-1,2-dihydro-2,7-naphthyridin-4-yl)-2-methoxyphenoxy)piperidin-1-yl)methyl)piperidine-1-carbonyl)-2-chlorophenyl)dihydropyrimidine-2,4(1H,3H)-dione] are 16.75% and 1 nM.
`CCCCn1cc(-c2ccc(O[C@H]3CCN(CC4CCN(C(=O)COc5ccc(C)c(N6CCC(=O)NC6=O)c5)CC4)C[C@@H]3F)c(OC)c2)c2ccncc2c1=O` [Compound E25, 1-(5-(2-(4-(((3S,4S)-4-(4-(2-Butyl-1-oxo-1,2-dihydro-2,7-naphthyridin-4-yl)-2-methoxyphenoxy)-3-fluoropiperidin-1-yl)methyl)piperidin-1-yl)-2-oxoethoxy)-2-methylphenyl)dihydropyrimidine-2,4(1H,3H)-dione]: the “BRD9 Deg Amax %” value was determined as 13.02% and half-maximal degradation (DC50) was put at 1 nM.
Taken in the same sequence, the figures for `COc1cc(-c2cn(C)c(=O)c3cnccc23)ccc1OC1CCN(CC2CCN(C(=O)c3ccc(OC)c(N4CCC(=O)NC4=O)c3)CC2)CC1` [Compound A4, 1-(2-Methoxy-5-(4-((4-(2-methoxy-4-(2-methyl-1-oxo-1,2-dihydro-2,7-naphthyridin-4-yl)phenoxy)piperidin-1-yl)methyl)piperidine-1-carbonyl)phenyl)dihydropyrimidine-2,4(1H,3H)-dione] were 14.01% and 4 nM.
For the compound `CCCCn1cc(-c2cc(OC)c(OCC3CCN(CC4CCN(C(=O)c5ccc(OC)c(N6CCC(=O)NC6=O)c5)CC4)CC3)c(OC)c2)c2ccncc2c1=O` [Compound B7, 1-(5-(4-((4-((4-(2-butyl-1-oxo-1,2-dihydro-2,7-naphthyridin-4-yl)-2,6-dimethoxyphenoxy)methyl)piperidin-1-yl)methyl)piperidine-1-carbonyl)-2-methoxyphenyl)dihydropyrimidine-2,4(1H,3H)-dione], the “BRD9 Deg Amax %” value amounted to 17.54% and the DC50 came out at 7 nM.
Taken in the same sequence, the figures for `COc1cc(-c2cn(C)c(=O)c3cnccc23)cc(F)c1CN1CCC(OC2CCN(CCn3cccc(CN4CCC(=O)NC4=O)c3=O)CC2)CC1` [Compound E24, 1-((1-(2-(4-((1-(2-fluoro-6-methoxy-4-(2-methyl-1-oxo-1,2-dihydro-2,7-naphthyridin-4-yl)benzyl)piperidin-4-yl)oxy)piperidin-1-yl)ethyl)-2-oxo-1,2-dihydropyridin-3-yl)methyl)dihydropyrimidine-2,4(1H,3H)-dione] were 17.08% and 42 nM.
Taken in the same sequence, the figures for `COc1cc(-c2cn(C)c(=O)c3cnccc23)cc(OC)c1CN1CCC(OC2CCN(CCn3cccc(CN4CCC(=O)NC4=O)c3=O)CC2)CC1` [Compound C2, 1-((1-(2-(4-((1-(2,6-dimethoxy-4-(2-methyl-1-oxo-1,2-dihydro-2,7-naphthyridin-4-yl)benzyl)piperidin-4-yl)oxy)piperidin-1-yl)ethyl)-2-oxo-1,2-dihydropyridin-3-yl)methyl)dihydropyrimidine-2,4(1H,3H)-dione] were 11.95% and 29 nM.
For `Cn1cc(-c2cc(F)c(CN3CCC(OC4CCN(CCn5cccc(CN6CCC(=O)NC6=O)c5=O)CC4)CC3)cc2F)c2ccncc2c1=O` [Compound E1, 1-((1-(2-(4-((1-(2,5-difluoro-4-(2-methyl-1-oxo-1,2-dihydro-2,7-naphthyridin-4-yl)benzyl)piperidin-4-yl)oxy)piperidin-1-yl)ethyl)-2-oxo-1,2-dihydropyridin-3-yl)methyl)dihydropyrimidine-2,4(1H,3H)-dione], the “BRD9 Deg Amax %” value is recorded as 19.40% and half-maximal degradation (DC50) was put at 6 nM.
Taken in the same sequence, the figures for `COc1cc(-c2cn(C)c(=O)c(C)c2C)cc(OC)c1CCN1CCC(OC2CCN(C(=O)c3cccc(N4CCC(=O)NC4=O)c3)CC2)CC1` [Compound A22, 1-(3-(4-((1-(2,6-Dimethoxy-4-(1,4,5-trimethyl-6-oxo-1,6-dihydropyridin-3-yl)phenethyl)piperidin-4-yl)oxy)piperidine-1-carbonyl)phenyl)dihydropyrimidine-2,4(1H,3H)-dione] were 11.18% and 6 nM.
Regarding `CCCCn1cc(-c2cc(F)c(O[C@@H]3CCN(CC4CCN(C(=O)c5ccc(OC)c(N6CCC(=O)NC6=O)c5)CC4)C[C@H]3F)c(F)c2)c2ccncc2c1=O` [Compound E56, 1-(5-(4-(((3R,4R)-4-(4-(2-butyl-1-oxo-1,2-dihydro-2,7-naphthyridin-4-yl)-2,6-difluorophenoxy)-3-fluoropiperidin-1-yl)methyl)piperidine-1-carbonyl)-2-methoxyphenyl)dihydropyrimidine-2,4(1H,3H)-dione], the “BRD9 Deg Amax %” value turned out to be 19.65% and it took 1 nM to reach half-maximal degradation (DC50).
The corresponding values for `COc1cc(-c2cn(C)c(=O)c3cnccc23)cc(OC)c1CCCN1CCC(OC2CCN(C(=O)c3ccc(Cl)c(N4CCC(=O)NC4=O)c3)CC2)CC1` [Compound A28, 1-(2-Chloro-5-(4-((1-(3-(2,6-dimethoxy-4-(2-methyl-1-oxo-1,2-dihydro-2,7-naphthyridin-4-yl)phenyl)propyl)piperidin-4-yl)oxy)piperidine-1-carbonyl)phenyl)dihydropyrimidine-2,4(1H,3H)-dione] are 22.70% and 2 nM.
Turning to `COc1cc(-c2cn(C)c(=O)c3cnccc23)cc(OC)c1CCN1CCC(OC2CCN(C(=O)c3cccc(N4CCC(=O)NC4=O)c3)CC2)CC1` [Compound A40, 1-(3-(4-((1-(2,6-Dimethoxy-4-(2-methyl-1-oxo-1,2-dihydro-2,7-naphthyridin-4-yl)phenethyl)piperidin-4-yl)oxy)piperidine-1-carbonyl)phenyl)dihydropyrimidine-2,4(1H,3H)-dione], the “BRD9 Deg Amax %” value is 14.20% and half-maximal degradation (DC50) was put at 4 nM.
The corresponding values for `COc1ccc(C(=O)N2CCC(OC3CCN(CCCc4c(OC)cc(-c5cn(C)c(=O)c6cnccc56)cc4OC)CC3)CC2)cc1N1CCC(=O)NC1=O` [Compound A37, 1-(5-(4-((1-(3-(2,6-Dimethoxy-4-(2-methyl-1-oxo-1,2-dihydro-2,7-naphthyridin-4-yl)phenyl)propyl)piperidin-4-yl)oxy)piperidine-1-carbonyl)-2-methoxyphenyl)dihydropyrimidine-2,4(1H,3H)-dione] are 13.01% and 2 nM.
For `COc1cc(-c2cn(C)c(=O)c3cnccc23)c(OC)cc1CN1CC[C@@H](OC2CCN(CCn3cccc(CN4CCC(=O)NC4=O)c3=O)CC2)[C@H](F)C1` [Compound E39, 1-((1-(2-(4-(((3R,4R)-1-(2,5-Dimethoxy-4-(2-methyl-1-oxo-1,2-dihydro-2,7-naphthyridin-4-yl)benzyl)-3-fluoropiperidin-4-yl)oxy)piperidin-1-yl)ethyl)-2-oxo-1,2-dihydropyridin-3-yl)methyl)dihydropyrimidine-2,4(1H,3H)-dione], the “BRD9 Deg Amax %” value stood at 14.60% and the DC50 worked out at 4 nM.
